Data reported in patent US9040691B2, “Hydroxymethylaryl-substituted pyrrolotriazines as ALK1 inhibitors” (BAYER INTELLECTUAL PROPERTY GMBH, priority 2011, dated 2015).
pIC50: −log10 of the molar value.

Columns and labels:
ALK1 kinase = ALK1 kinase (Homo sapiens (Human), UniProt P37023); assay: In vitro enzyme inhibition using scintillation of incorporated radio label (flashplate assay); assay type: biochemical; conditions: biotinylated α-casein, 33P-ATP, 500 nM ATP
Description: B-1a. In Vitro Enzyme Inhibition Using Scintillation of Incorporated Radio Label (Flashplate Assay)
Test compounds diluted in DMSO are mixed with a suitable substrate/co-substrate (here: biotinylated α-casein and ^33P-ATP) in a corresponding assay buffer. Addition of the enzyme of interest (here: ALK1 kinase) starts the enzyme reaction. The enzyme-catalyzed incorporation of radio label into the substrate is measured via scintillation. Incorporated radio label is separated from free radio label via specific binding of the biotinylated substrate to strepavidin-coated microtiter plates (flashplates) and concomitant washing steps. The scintillation signal intensity (counts per minutes, cpm) is proportional to the enzyme activity. Enzyme inhibition results in a decreased signal intensity. IC50 values of the test compounds are determined by cpm-versus-[I] plots.
Reaction buffer contains 50 mM Tris pH 8.0 (Sigma), 1 mM MnCl2 (Sigma), 0.01% Nonidet P40 (Fluka), 0.5× Complete EDTA-free protease inhibitors (Roche; contains a mixture of several protease inhibitors for the inhibition of serine and cysteine (but not metallo-) proteases; 1 tablet contains protease inhibitors sufficient for a 50 ml cell extract; the concentration used in this assay corresponds to 1 tablet in 100 ml).
• 1.) Stop solution: Dulbecco's PBS (PAA, Pasching, Austria), 25 mM EDTA (Sigma), 25 μM ATP (Roche), 0.05% Triton X-100 (Sigma); • 2.) Saturation buffer: Dulbecco's PBS (PAA, Pasching, Austria), 100 μM ATP (Roche), 0.2% Triton X-100 (Sigma); • 3.) Wash buffer: Dulbecco's PBS (PAA, Pasching, Austria). Enzyme Solution:
ALK1 (Invitrogen, Paisley, United Kingdom) stock solution (35.7 ng/μl) is diluted to 4 ng/μl; final concentration in the reaction is 1 ng/μl.
Dephosphorylated α-casein (Sigma) is biotinylated according to the manufacturer's protocol (Pierce, Bonn, Germany) resulting in a stock solution of 61.6 μM. Briefly, EZ-Link® Biotin reagent (sulfosuccinimidyl-6-(biotinamido)hexanoate; Pierce, Bonn, Germany) is added in equal molarity to α-casein and incubated on ice for 2 h. Afterwards, the biotin reagent is removed by dialysis (2×2 h and overnight).
A 100 mM solution of cold (unlabelled) ATP (Roche) is diluted 1:100 before each test. For the substrate mix, α-casein is diluted to 2.22 μM resulting in a final concentration of 1 μM α-casein in the reaction. Additionally, cold ATP is added to give a 1.11 μM solution which results in a final concentration of 500 nM in the reaction.
Radioactive ATP Solution:
The stock solution (9.25 MBq/25 μl of ^33P-ATP; Perkin Elmer, Rodgau, Germany) is diluted to 651.2 Bq/μl.
Compounds are dissolved in 100% DMSO (10 mM stock solution) and diluted to 2 mM. Further dilutions are made stepwise 1:3.16 in DMSO.
A volume of 9 μl substrate solution is provided into each well of a 384 well microliter plate (Greiner Bio-One, Solingen, Germany), 1 μl compound solution and 5 μl of the radioactive ATP solution are added. Enzyme reaction starts with addition of 5 μl of enzyme solution. The mixture is incubated for 60 minutes at room temperature and then stopped by addition of 10 μl stop solution. The 384 well microliter flashplates (Perkin Elmer, Rodgau, Germany) are saturated with 50 μl saturation buffer per well for at least 60 minutes. Subsequently, a volume of 20 μl is discarded and replaced with 20 μl of the stopped ALK1 reaction mixture. Binding of biotinylated substrate to the flashplate is allowed for by overnight incubation at room temperature. Bound substrate is separated from unbound components through repeated washing steps (3×50 μl washing buffer per well). Finally, 50 μl washing buffer is added, and the scintillation signal (cpm) is measured in a suitable counter (Perkin Elmer, Rodgau, Germany).

[1] = tested on: hSmad7 mRNA in BMP9-stimulated HUVEC; assay: Smad7 target gene induction: HUVEC cell assay and TaqMan expression analysis; assay type: cell-based, human; conditions: 1 ng/ml BMP9 for 3 h, Smad7 mRNA by TaqMan
Description: B-2b. Smad7 Target Gene Induction: HUVEC Cell Assay and TaqMan Expression Analysis
The in vitro potency of ALK1 inhibitors was tested in a cell-based assay. Bone morphogenetic protein 9 (BMP9) induces Smad7 mRNA expression in human vascular endothelial cells (HUVEC) via activation of ALK1.
1.5×10^4 passage 2 HUVECs (Lonza, Basel, Switzerland) per well were seeded in a 96-well plate in EBM-2 medium containing EGM-2 additives and growth factors (Lonza, CC-3156 and CC-4176). After 4 h, the medium was changed to EBM-2 with 0.2% fetal calf serum (FCS) and the cells were starved for 20 h in a humidified incubator at 37° C., 5% CO2. Test compounds were added at 11 different concentrations between 0 and 10 000 nM one hour prior to stimulation of the cells for 3 h with recombinant human BMP9 protein at 1 ng/ml (dissolved in 4 mM hydrochloric acid, 0.1% BSA at 10 μg/ml; R&D Systems, Minneapolis, Minn., USA, 3209BP). Medium was removed, and the cells were lysed in 100 μl RLT buffer (Qiagen, Hilden, Germany). RNA was isolated using the Qiagen RNeasy 96 Kit (order-No. 74182) according to manufacturer's instructions and eluted from the columns with 65 μl RNAse-free water. Reverse transcription for quantitative RT-PCR was carried out with the Omniscript Kit (Qiagen, 205113) in RNAse-free 96-well round-bottom plates. Per well, 6.8 μl of a reaction master mix containing 2 μl 10×RT-buffer, 2 μl dNTPs (5 mM each), 1.6 μl random primer N6 (125 μM), 0.25 μl Rnase Out (40 U/μl) and 1 μl Omniscript Reverse Transcriptase were added. After addition of 13.2 μl of the RNA/water mixture, plate contents were mixed, incubated for 1 h at 37° C. and the total volume adjusted to 100 μl in each well by addition of 80 μl RNAse-free water.
The quantification of human Smad7 mRNA was carried out on a TaqMan using the Eurogentec qPCR Mastermix Plus (RT-QP2X-03-075+; Cologne, Germany) and employing human L32 as housekeeping reference mRNA. Per qPCR reaction, 2.8 μl primer mix, 10 μl master mix, 2.2 μl water and 5 μl cDNA were added. Thermal cycling parameters were 2 min at 50° C., followed by 10 min at 95° C., followed by 40 cycles of melting at 95° C. for 15 sec and annealing/extending at 60° C. for 1 min.
Smad7 mRNA levels induced by 1 ng/ml BMP9 without the addition of any inhibitor were set at 100% induction, and % inhibition was calculated for each test compound with this value. For each test compound, every value was determined in quadruplicate. The IC50 values were determined using Microsoft Excel. The fitting method used was a weighted, unconstrained ML-fit.

Sequence of ALK1 kinase (P37023 22-503): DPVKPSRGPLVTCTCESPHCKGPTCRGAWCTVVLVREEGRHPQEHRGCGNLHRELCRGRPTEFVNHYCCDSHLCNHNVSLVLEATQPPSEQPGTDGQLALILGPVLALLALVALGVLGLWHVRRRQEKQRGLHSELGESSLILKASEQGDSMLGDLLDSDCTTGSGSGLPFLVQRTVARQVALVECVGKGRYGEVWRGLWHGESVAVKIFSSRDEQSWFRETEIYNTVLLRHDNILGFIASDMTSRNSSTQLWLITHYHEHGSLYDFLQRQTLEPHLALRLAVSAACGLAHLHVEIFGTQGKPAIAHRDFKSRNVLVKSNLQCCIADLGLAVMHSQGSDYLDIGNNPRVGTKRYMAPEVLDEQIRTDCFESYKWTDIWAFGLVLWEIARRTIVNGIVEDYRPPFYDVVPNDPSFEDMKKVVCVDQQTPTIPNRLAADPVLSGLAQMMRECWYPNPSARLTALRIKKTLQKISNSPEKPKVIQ

With `COc1cc(-c2cc(C3CCCNC3)n3ncnc(N)c23)cc(F)c1CO` (centres unmarked) [Example 30, {4-[4-Amino-7-(piperidin-3-yl)pyrrolo[2,1-f][1,2,4]triazin-5-yl]-2-fluoro-6-methoxyphenyl}-methanol] the pIC50 (ALK1 kinase) was 8.70 and the pIC50 ([1]; Homo sapiens, 3 h) was 7.29.
`COc1cc(-c2cc(C(O)C3CC3)n3ncnc(N)c23)ccc1CO` (single isomer, unassigned; ent-4) [Example 42, ent-4-Amino-5-[4-(hydroxymethyl)-3-methoxyphenyl]pyrrolo[2,1-f][1,2,4]triazin-7-yl}(cyclopropyl)methanol (enantiomer 2)] was tested, and the pIC50 (ALK1 kinase) was 8.92 and the pIC50 [1] was 8.18.
`CC(C)c1cc(-c2cc(F)c(CO)c(F)c2)c2c(N)ncnn12` [Example 43, [4-(4-Amino-7-isopropylpyrrolo[2,1-f][1,2,4]triazin-5-yl)-2,6-difluorophenyl]methanol] gave a pIC50 (ALK1 kinase) of 8.72 and a pIC50 ([1]; Homo sapiens, 3 h) of 7.57.
For `COc1cc(-c2cc(C(O)C3CC3)n3ncnc(N)c23)ccc1CO` (racemic) [Example 40, rac-{4-Amino-5-[4-(hydroxymethyl)-3-methoxyphenyl]pyrrolo[2,1-f][1,2,4]triazin-7-yl}(cyclopropyl)methanol], the pIC50 (ALK1 kinase) was 8.49 and the pIC50 ([1]; Homo sapiens, 3 h) was 7.21.
Work on `CCc1nc(-c2cc(-c3ccc(CO)cc3)c3c(N)ncnn23)cs1` [Example 15, {4-[4-Amino-7-(2-ethyl-1,3-thiazol-4-yl)pyrrolo[2,1-f][1,2,4]triazin-5-yl]phenyl}methanol] yielded a pIC50 (ALK1 kinase) of 7.22.
For `COc1cc(-c2cc(C(O)C3CC3)n3ncnc(N)c23)ccc1CO` (single isomer, unassigned; ent-4) [Example 41, ent-4-Amino-5-[4-(hydroxymethyl)-3-methoxyphenyl]pyrrolo[2,1-f][1,2,4]triazin-7-yl}(cyclopropyl)methanol (enantiomer 1)], the pIC50 (ALK1 kinase) was 8.46 and the pIC50 [1] was 7.11.
`Cc1nc(-c2cc(-c3ccc(CO)cc3)c3c(N)ncnn23)cs1` [Example 13, {4-[4-Amino-7-(2-methyl-1,3-thiazol-4-yl)pyrrolo[2,1-f][1,2,4]triazin-5-yl]phenyl}methanol] gave a pIC50 (ALK1 kinase) of 8.40.
`Nc1ncnn2c(CN3CCOCC3)cc(-c3ccc(CO)cc3)c12` [Example 19, {4-[4-Amino-7-(morpholin-4-ylmethyl)pyrrolo[2,1-f][1,2,4]triazin-5-yl]phenyl}methanol] showed a pIC50 (ALK1 kinase) of 7.72.
`Nc1ncnn2c(CN3CCOCC3)cc(-c3ccc(CO)nc3)c12` [Example 24, {5-[4-Amino-7-(morpholin-4-ylmethyl)pyrrolo[2,1-f][1,2,4]triazin-5-yl]pyridin-2-yl}methanol] gave a pIC50 (ALK1 kinase) of 6.85.
In the case of `NCc1nc(-c2cc(-c3cc(F)c(CO)c(F)c3)c3c(N)ncnn23)cs1` [Example 34, (4-[4-Amino-7-[2-(aminomethyl)-1,3-thiazol-4-yl]pyrrolo[2,1-f][1,2,4]triazin-5-yl]-2,6-difluorophenyl)methanol], the pIC50 (ALK1 kinase) was 8.39.
In the case of `Nc1ncnn2c([C@H]3CCCNC3)cc(-c3cc(F)c(CO)c(F)c3)c12` [Example 12, (4-{4-Amino-7-[(3S)-piperidin-3-yl]pyrrolo[2,1-f][1,2,4]triazin-5-yl}-2,6-difluorophenyl)methanol], the pIC50 (ALK1 kinase) was 8.23.
`Cc1cc(-c2cc(C3CCCNC3)n3ncnc(N)c23)cc(F)c1CO` (centres unmarked) [Example 31, {4-[4-Amino-7-(piperidin-3-yl)pyrrolo[2,1-f][1,2,4]triazin-5-yl]-2-fluoro-6-methylphenyl}-methanol] gave a pIC50 (ALK1 kinase) of 8.40.
